Patent publication US10233173B2, “Substituted 1,2,3-triazoles as NR2B-selective NMDA modulators” (JANSSEN PHARMACEUTICA NV, priority 2016, dated 2019)

biological target: human GluN1/GluN2B NMDA receptors (Homo sapiens, UniProt Q05586+Q13224); assay: Cell-based calcium flux (FLIPR) assay on cloned human NR1/NR2B ion channels expressed in mammalian cells; conditions: standard assay; human GluN1/GluN2B, calcium flux (FLIPR), glutamate ~EC80
Experimental: Effects of Test Articles on Cloned Human NR1/NR2B Ion Channels Expressed in Mammalian Cells
NMDA receptors are ion channels that are highly permeable to Ca^2+ ions, rendering it possible to monitor NMDA receptor function using cell-based calcium flux assay. In this assay, co-agonists glutamate and glycine are added to cells heterologously expressing human GluN1/GluN2B NMDA receptors to initiate cellular Ca^2+ influx. The time course of the changes in intracellular calcium is measured using a fluorescent dye and a FLIPR (Fluorometric Imaging Plate Reader) device.
Twenty four hours before measurements, the expression of the NMDA receptors in the stable cell line is induced with Tet-On inducible system in the presence of a non-selective NMDA receptor blocker. On the day of the experiment, cell culture media is carefully washed and the cells are loaded with Calcium 5 Dye Kit (Molecular Devices) in dye loading buffer containing 149 mM NaCl, 4 mM KCl, 2 mM CaCl2, and 1.5 mM MgCl2, 10 mM HEPES and 5 mM D-glucose; pH 7.4. After 1 h incubation at the room temperature, the dye is washed away with the assay buffer (149 mM NaCl (standard assay) or 150 mM (HTS assay), 4 mM KCl (standard assay) or 3 mM (HTS assay), 2 mM CaCl2, 0.01 mM EDTA, 10 mM HEPES and 5 mM D-glucose; pH 7.4) In the FLIPR TETRA reader, various concentrations of the test compounds are added to the cells for 5 min while fluorescence is monitored to detect potential agonist activity. Next, co-agonists, glutamate and glycine are added for another 5 minutes. The concentration of glutamate corresponding to ˜EC80 (standard assay) or EC40 (HTS assay) is used to maximize the assay's signal window or the ability to detect NMDA receptor antagonists and negative allosteric modulators, respectively. A saturating concentration (10 μM) of glycine is also present in the assay. […] The fluorescent signal in the presence of test compounds is quantified and normalized to the signal defined by the appropriate control wells.

human GluN1/GluN2B NMDA receptors, sequence (Q13224 27-1484, other chains not shown): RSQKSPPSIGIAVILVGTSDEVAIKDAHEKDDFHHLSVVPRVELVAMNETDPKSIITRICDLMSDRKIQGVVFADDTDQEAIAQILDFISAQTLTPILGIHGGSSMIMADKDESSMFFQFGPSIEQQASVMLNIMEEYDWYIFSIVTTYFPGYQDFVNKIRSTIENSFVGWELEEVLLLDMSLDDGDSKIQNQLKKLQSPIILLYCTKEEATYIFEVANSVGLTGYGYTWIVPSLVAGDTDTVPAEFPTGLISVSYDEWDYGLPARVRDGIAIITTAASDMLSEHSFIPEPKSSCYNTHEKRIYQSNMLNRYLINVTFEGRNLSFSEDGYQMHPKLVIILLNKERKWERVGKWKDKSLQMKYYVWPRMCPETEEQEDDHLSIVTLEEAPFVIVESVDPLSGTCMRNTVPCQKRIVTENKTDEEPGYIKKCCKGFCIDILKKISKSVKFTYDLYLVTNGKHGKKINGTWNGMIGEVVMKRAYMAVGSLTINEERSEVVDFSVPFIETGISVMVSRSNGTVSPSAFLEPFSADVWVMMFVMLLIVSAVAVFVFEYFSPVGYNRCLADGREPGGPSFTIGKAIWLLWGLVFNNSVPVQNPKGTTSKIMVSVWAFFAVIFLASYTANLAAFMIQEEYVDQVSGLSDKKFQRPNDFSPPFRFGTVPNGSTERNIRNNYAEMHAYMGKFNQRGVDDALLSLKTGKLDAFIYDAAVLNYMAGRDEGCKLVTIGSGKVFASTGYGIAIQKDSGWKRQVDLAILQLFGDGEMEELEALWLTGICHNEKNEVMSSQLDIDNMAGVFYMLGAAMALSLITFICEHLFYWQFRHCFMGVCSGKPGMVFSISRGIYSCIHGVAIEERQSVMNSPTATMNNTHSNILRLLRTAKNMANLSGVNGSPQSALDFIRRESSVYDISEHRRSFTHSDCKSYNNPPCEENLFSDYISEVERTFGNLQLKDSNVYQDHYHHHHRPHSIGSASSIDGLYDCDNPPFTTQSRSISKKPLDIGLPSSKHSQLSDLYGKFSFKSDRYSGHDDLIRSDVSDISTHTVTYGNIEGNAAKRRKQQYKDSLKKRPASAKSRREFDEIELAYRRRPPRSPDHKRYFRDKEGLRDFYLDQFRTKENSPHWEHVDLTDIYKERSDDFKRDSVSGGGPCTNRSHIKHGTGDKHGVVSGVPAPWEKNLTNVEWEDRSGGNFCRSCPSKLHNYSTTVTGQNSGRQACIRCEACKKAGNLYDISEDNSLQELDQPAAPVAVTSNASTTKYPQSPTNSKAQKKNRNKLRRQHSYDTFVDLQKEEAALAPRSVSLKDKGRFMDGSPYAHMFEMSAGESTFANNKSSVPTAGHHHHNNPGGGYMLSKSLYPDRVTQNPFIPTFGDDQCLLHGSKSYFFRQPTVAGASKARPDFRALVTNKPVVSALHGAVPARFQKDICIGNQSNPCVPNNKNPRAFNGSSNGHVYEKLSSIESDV

With Cc1cnc(OCc2cn(-c3ccc(F)c(OC(F)F)c3)nn2)nc1 [Example 63, 2-[[1-[3-(Difluoromethoxy)-4-fluoro-phenyl]triazol-4-yl]methoxy]-5-methyl-pyrimidine] as the compound, how does the IC50 read?
The IC50 was 0.003 µM.

For Cc1ccnc(OCc2cn(-c3ccc(F)c(OC(F)F)c3)nn2)n1 [Example 64, 2-[[1-[3-(Difluoromethoxy)-4-fluoro-phenyl]triazol-4-yl]methoxy]-4-methyl-pyrimidine], which IC50 is on record?
The IC50 was 0.007 µM.

For Fc1ccc(-n2cc(COc3ccc(C(F)(F)F)cn3)nn2)cc1C(F)F [Example 65, 2-[[1-[3-(Difluoromethyl)-4-fluoro-phenyl]triazol-4-yl]methoxy]-5-(trifluoromethyl)pyridine], which IC50 is on record?
Its IC50 is 0.056 µM.

How did the IC50 turn out when Fc1cnc(OCc2cn(-c3ccc(Cl)c(C(F)F)c3)nn2)nc1 [Example 66, 2-[[1-[4-Chloro-3-(difluoromethyl)phenyl]triazol-4-yl]methoxy]-5-fluoro-pyrimidine] was run?
The IC50 was 0.052 µM.

With CCc1cnc(OCc2cn(-c3ccc(F)c(C(C)(F)F)c3)nn2)nc1 [Example 67, 2-[[1-[3-(1,1-Difluoroethyl)-4-fluoro-phenyl]triazol-4-yl]methoxy]-5-ethyl-pyrimidine] as the compound, how does the IC50 read?
Its IC50 is 0.015 µM.

For COc1cnc(OCc2cn(-c3ccc(F)c(C(C)(F)F)c3)nn2)nc1 [Example 68, 2-[[1-[3-(1,1-Difluoroethyl)-4-fluoro-phenyl]triazol-4-yl]methoxy]-5-methoxy-pyrimidine], which IC50 is on record?
Its IC50 is 0.007 µM.

Which IC50 does the source give for CC(F)(F)c1cc(-n2cc(COc3ncc(Cl)cn3)nn2)ccc1F [Example 69, 5-Chloro-2-[[1-[3-(1,1-difluoroethyl)-4-fluoro-phenyl]triazol-4-yl]methoxy]pyrimidine] here?
Its IC50 is 0.009 µM.

Which IC50 does the source give for CC(C)c1cnc(OCc2cn(-c3ccc(F)c(C(C)(F)F)c3)nn2)nc1 [Example 70, 2-[[1-[3-(1,1-Difluoroethyl)-4-fluoro-phenyl]triazol-4-yl]methoxy]-5-isopropyl-pyrimidine] here?
The IC50 was 0.044 µM.

Which IC50 does the source give for CC(F)(F)c1cc(-n2cc(COc3ncc(C(F)(F)F)cn3)nn2)ccc1F [Example 71, 2-[[1-[3-(1,1-Difluoroethyl)-4-fluoro-phenyl]triazol-4-yl]methoxy]-5-(trifluoromethyl)pyrimidine] here?
Its IC50 is 0.04 µM.

Which IC50 does the source give for CCc1cnc(OCc2cn(-c3ccc(F)c(C(F)(F)F)c3)nn2)nc1 [Example 72, 5-Ethyl-2-[[1-[4-fluoro-3-(trifluoromethyl)phenyl]triazol-4-yl]methoxy]pyrimidine] here?
Its IC50 is 0.01 µM.

Which IC50 does the source give for COc1cnc(OCc2cn(-c3ccc(F)c(C(F)(F)F)c3)nn2)nc1 [Example 73, 2-[[1-[4-Fluoro-3-(trifluoromethyl)phenyl]triazol-4-yl]methoxy]-5-methoxy-pyrimidine] here?
Its IC50 is 0.008 µM.

Fc1ccc(-n2cc(COc3ncc(Cl)cn3)nn2)cc1C(F)(F)F [Example 74, 5-Chloro-2-[[1-[4-fluoro-3-(trifluoromethyl)phenyl]triazol-4-yl]methoxy]pyrimidine] was tested. Which IC50 did it give?
Its IC50 is 0.016 µM.

With CC(C)c1cnc(OCc2cn(-c3ccc(F)c(C(F)(F)F)c3)nn2)nc1 [Example 75, 2-[[1-[4-Fluoro-3-(trifluoromethyl)phenyl]triazol-4-yl]methoxy]-5-isopropyl-pyrimidine] as the compound, how does the IC50 read?
The IC50 was 0.026 µM.

How did the IC50 turn out when Fc1ccc(-n2cc(COc3ncc(C(F)(F)F)cn3)nn2)cc1C(F)(F)F [Example 76, 2-[[1-[4-Fluoro-3-(trifluoromethyl)phenyl]triazol-4-yl]methoxy]-5-(trifluoromethyl)pyrimidine] was run?
The IC50 was 0.035 µM.

For Cc1cnc(OCc2cn(-c3ccc(F)c(C(C)(F)F)c3)nn2)nc1 [Example 77, 2-[[1-[3-(1,1-Difluoroethyl)-4-fluoro-phenyl]triazol-4-yl]methoxy]-5-methyl-pyrimidine], which IC50 is on record?
The IC50 was 0.004 µM.

For CC(F)(F)c1cc(-n2cc(COc3ncccn3)nn2)ccc1F [Example 78, 2-[[1-[3-(1,1-Difluoroethyl)-4-fluoro-phenyl]triazol-4-yl]methoxy]pyrimidine], which IC50 is on record?
Its IC50 is 0.06 µM.

Which IC50 does the source give for Cc1ccnc(OCc2cn(-c3ccc(F)c(C(C)(F)F)c3)nn2)n1 [Example 79, 2-[[1-[3-(1,1-Difluoroethyl)-4-fluoro-phenyl]triazol-4-yl]methoxy]-4-methyl-pyrimidine] here?
Its IC50 is 0.007 µM.

For CC(F)(F)c1cc(-n2cc(COc3ncc(F)cn3)nn2)ccc1F [Example 80, 2-[[1-[3-(1,1-Difluoroethyl)-4-fluoro-phenyl]triazol-4-yl]methoxy]-5-fluoro-pyrimidine], which IC50 is on record?
The IC50 was 0.032 µM.

With Cc1cnc(OCc2cn(-c3ccc(F)c(C(F)(F)F)c3)nn2)nc1 [Example 81, 2-[[1-[4-Fluoro-3-(trifluoromethyl)phenyl]triazol-4-yl]methoxy]-5-methyl-pyrimidine] as the compound, how does the IC50 read?
Its IC50 is 0.003 µM.

With Fc1ccc(-n2cc(COc3ncccn3)nn2)cc1C(F)(F)F [Example 82, 2-[[1-[4-Fluoro-3-(trifluoromethyl)phenyl]triazol-4-yl]methoxy]pyrimidine] as the compound, how does the IC50 read?
Its IC50 is 0.126 µM.

Cc1ccnc(OCc2cn(-c3ccc(F)c(C(F)(F)F)c3)nn2)n1 [Example 83, 2-[[1-[4-Fluoro-3-(trifluoromethyl)phenyl]triazol-4-yl]methoxy]-4-methyl-pyrimidine] was tested. Which IC50 did it give?
Its IC50 is 0.02 µM.

With Fc1cnc(OCc2cn(-c3ccc(F)c(C(F)(F)F)c3)nn2)nc1 [Example 84, 5-Fuoro-2-[[1-[4-fluoro-3-(trifluoromethyl)phenyl]triazol-4-yl]methoxy]pyrimidine] as the compound, how does the IC50 read?
The IC50 was 0.072 µM.

With Cc1cnc(OCc2cn(-c3ccc(F)c(Br)c3)nn2)nc1C [Example 85, 2-[[1-(3-Bromo-4-fluoro-phenyl)triazol-4-yl]methoxy]-4,5-dimethyl-pyrimidine] as the compound, how does the IC50 read?
The IC50 was 0.003 µM.

For Cc1cnc(OCc2cn(-c3ccc(Cl)c(C(F)F)c3)nn2)nc1C [Example 86, 2-[[1-[4-Chloro-3-(difluoromethyl)phenyl]triazol-4-yl]methoxy]-4,5-dimethyl-pyrimidine], which IC50 is on record?
The IC50 was 0.004 µM.

With COc1cnc(OCc2cn(-c3ccc(Cl)c(OC)c3)nn2)nc1 [Example 87] as the compound, how does the IC50 read?
The IC50 was 0.012 µM.

How did the IC50 turn out when COc1cc(-n2cc(COc3ncc(C)cn3)nn2)ccc1Cl [Example 88, 2-[[1-(4-Chloro-3-methoxy-phenyl)triazol-4-yl]methoxy]-5-methyl-pyrimidine] was run?
The IC50 was 0.019 µM.

With Cc1cnc(OCc2cn(-c3cccc(C(F)F)c3)nn2)nc1 [Example 89, 2-[[1-[3-(Difluoromethyl)phenyl]triazol-4-yl]methoxy]-5-methyl-pyrimidine] as the compound, how does the IC50 read?
The IC50 was 0.011 µM.

COc1cnc(OCc2cn(-c3cccc(C(F)F)c3)nn2)nc1 [Example 90, 2-[[1-[3-(Difluoromethyl)phenyl]triazol-4-yl]methoxy]-5-methoxy-pyrimidine] was tested. Which IC50 did it give?
The IC50 was 0.012 µM.

How did the IC50 turn out when CCc1cnc(OCc2cn(-c3cccc(C(F)F)c3)nn2)nc1 [Example 91, 2-[[1-[3-(Difluoromethyl)phenyl]triazol-4-yl]methoxy]-5-ethyl-pyrimidine] was run?
The IC50 was 0.004 µM.

FC(F)c1cccc(-n2cc(COc3ncc(Cl)cn3)nn2)c1 [Example 92, 5-Chloro-2-[[1-[3-(difluoromethyl)phenyl]triazol-4-yl]methoxy]pyrimidine] was tested. Which IC50 did it give?
Its IC50 is 0.019 µM.

How did the IC50 turn out when FC(F)c1cccc(-n2cc(COc3ncccn3)nn2)c1 [Example 93, 2-[[1-[3-(Difluoromethyl)phenyl]triazol-4-yl]methoxy]pyrimidine] was run?
Its IC50 is 0.493 µM.

With Cc1cnc(OCc2cn(-c3ccc(Br)c(C)n3)nn2)nc1 [Example 94, 2-[[1-(5-Bromo-6-methyl-2-pyridyl)triazol-4-yl]methoxy]-5-methyl-pyrimidine] as the compound, how does the IC50 read?
The IC50 was 2.91 µM.

With Fc1cnc(OCc2cn(-c3ccc(Cl)c(OC(F)F)c3)nn2)nc1 [Example 95, 2-[[1-[4-Chloro-3-(difluoromethoxy)phenyl]triazol-4-yl]methoxy]-5-fluoro-pyrimidine] as the compound, how does the IC50 read?
Its IC50 is 0.023 µM.

FC(F)Oc1cc(-n2cc(COc3ncc(C(F)F)cn3)nn2)ccc1Cl [Example 96, 2-[[1-[4-Chloro-3-(difluoromethoxy)phenyl]triazol-4-yl]methoxy]-5-(difluoromethyl)pyrimidine] was tested. Which IC50 did it give?
Its IC50 is 0.008 µM.

How did the IC50 turn out when FC(F)Oc1cc(-n2cc(CNc3ncco3)nn2)ccc1Cl [Example 97, N-[[1-[4-Chloro-3-(difluoromethoxy)phenyl]triazol-4-yl]methyl]oxazol-2-amine] was run?
Its IC50 is 0.106 µM.

How did the IC50 turn out when FC(F)Oc1cc(-n2cc(CNc3ncccn3)nn2)ccc1Cl [Example 98, N-[[1-[4-Chloro-3-(difluoromethoxy)phenyl]triazol-4-yl]methyl]pyrimidin-2-amine] was run?
Its IC50 is 0.331 µM.

How did the IC50 turn out when Cn1cc(NCc2cn(-c3ccc(F)c(C(F)F)c3)nn2)cn1 [Example 99, N-[[1-[3-(Difluoromethyl)-4-fluoro-phenyl]triazol-4-yl]methyl]-1-methyl-pyrazol-4-amine] was run?
Its IC50 is 5.05 µM.

With Cn1ccc(NCc2cn(-c3ccc(F)c(C(F)F)c3)nn2)n1 [Example 100, N-[[1-[3-(Difluoromethyl)-4-fluoro-phenyl]triazol-4-yl]methyl]-1-methyl-pyrazol-3-amine] as the compound, how does the IC50 read?
Its IC50 is 0.894 µM.
